Results from US9718823B2, “2, 6-Di-nitrogen-containing substituted purine derivative, and preparation method, pharmaceutical composition and use thereof” (Zhejiang Medicine Co., Ltd. Xinchang Pharmaceutical Factory, priority 2013, dated 2017).
Several values for one entry are separate records, joined by “and”; a condition that tells them apart may be missing. Identical values can stand only once. Like-named read-outs stand apart in the source and are kept apart here.

Columns and labels:
PI3 K γ = biological target: T1, PI3 K γ (Homo sapiens, UniProt P48736); assay: Inhibitory activity to PI3K γ, PI 3-Kinase (human) HTRF Assay kit; assay type: biochemical; conditions: read-out: Inhibition rate % to PI3 K γ
T1 construct: purchased Biology, Medicilon
Method in brief: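 HTRF kinase assay with PI3Kγ at 80 ng/well, 10 μM PIP2 and 100 μM ATP (both final) in DTT-containing reaction buffer, 1% DMSO. Preliminary screen at 10 μM and 1 μM compound, followed by IC50 determination for selected compounds.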

[1] = system: PC-3 human prostate cancer cell strain; assay: Antitumor cell proliferation in vitro, CCK-8 detection kit, PC-3; assay type: cell-based; conditions: PC-3 cells, 1st and 2nd test where printed
Protocol: (§1) The half inhibitory concentration IC50 of proliferation of three kinds of tumor cell strain (U87MG, PC-3, BT474) for 12 candidate compounds of the present invention is detected by CCK-8 detection kits.
PC-3 human prostate cancer cell strain (cell bank of Chinese Academy of Sciences)
(§2) The studied compounds are dissolved by DMSO to make the final concentration 10 mM.
(§3) • a) Collecting the cells in logarithmic phase, counting, and resuspending the cells with complete medium. • b) Adjusting the concentration of cells to a suitable concentration, inoculating in 96 well plates, each well is inoculated to 100 μl cell suspension.
(§4) c) incubating cells for 24 hours in a 5% CO2 incubator at temperature of 37° C., under the condition of 100% relative humidity.
(§5) a) The cells in logarithmic phase is collected, counted, resuspended with complete medium. The concentration of cells is adjusted to a suitable concentration (determined in accordance with the optimizable test results of cell density), and the cells is inoculated in 96 well plates, wherein each well is inoculated 100 μl cell suspension, Cells are incubated for 24 hours in 5% CO2 incubator at temperature of 37° C. under the condition of 100% relative humidity.
(§6) b) The test compounds are diluted to 500 μM with culture medium, then diluted in series eight times. […] as 25 μl/well. The final concentrations of the compounds are diluted from 100 μM to 0 μM, with 4 times dilution, and there are a total of 10 concentration points.
(§7) c) Cells are incubated for 72 hours in 5% CO2 incubator at temperature of 37° C. under the condition of 100% relative humidity.
(§8) d) The culture medium is aspirated and discarded, and complete medium containing 10% CCK-8 is incubated in a incubator at 37° C. for 2˜4 hours.
(§9) e) After shocking gently, the absorbance of the culture medium is measured at 450 nm wavelength on SpectraMax M5 Microplate Reader, with the absorbance at 650 nm as reference, to calculate the inhibition rate.

PDGFR β enzyme = biological target: T2, PDGFR β enzyme (Homo sapiens, UniProt P09619); assay: Inhibitory activity to PDGFR β enzyme, HTRF kinEASE TK kit; assay type: biochemical; conditions: read-out: Inhibition rate % (PDGFR β)
T2 construct: purchased Invitrogen P3082
Method in brief: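 Recombinant human PDGFRβ phosphorylating TK-substrate in kinase buffer containing MgCl2, MnCl2, DTT and SEB, with ATP. Phosphorylation detected by HTRF using TK-Ab-Cryptate and Sa-XL665.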

[2] = system: U87MG human glioblastoma Multiforme cell strain; assay: Antitumor cell proliferation in vitro, CCK-8 detection kit, U87MG; assay type: cell-based; conditions: U-87 MG, 72 h, U-87MG cells, 1st and 2nd test where printed
Protocol: as §1
U87MG human glioblastoma Multiforme cell strain (cell bank of Chinese Academy of Sciences)
as §2, §3, §4, §5, §6, §7, §8, §9

[3] = system: BT474 human breast cancer cell strain; assay: Antitumor cell proliferation in vitro, CCK-8 detection kit, BT474; assay type: cell-based; conditions: BT-474 cells, 1st and 2nd test where printed
Protocol: as §1
BT474 human breast cancer cell strain (cell bank of Chinese Academy of Sciences) Reagents and materials:
as §2, §3, §4, §5, §6, §7, §8, §9

PI3K α = biological target: T3, PI3K α (Homo sapiens, UniProt P42336); assay: Inhibitory activity to PI3K α, PI 3-Kinase (human) HTRF Assay kit; assay type: biochemical; conditions: read-out: % Inhibition Rate to PI3K α
T3 construct: purchased Millipore 14-602
Source text: Study on the inhibitory activity of the compounds of present invention to PI 3κα, PI3κδ and PI3κγ. Two or three concentrations of the compounds are selected to preliminary screening to calculate respectively the activity inhibition rate of the compounds of corresponding concentrations to enzyme, then the compounds with better activity are selected by preliminary screening for IC50 test.
PI 3-Kinase (human) HTRF™ Assay kit (Cat.33-017, Millipore)
PI 3k α (Cat.14-602, Millipore)
4× Reaction Buffer (Cat.33-002, Millipore) is diluted with ddH2O to 1.33×, and 1M DTT is added to make the final concentration as 6.67 mM. For example, 10 μL DTT is added into 500 μL 4× Reaction Buffer, and water is added to 1.5 mL.
The Test compounds are dissolved with DMSO to 1 mM as storage liquid. 2 μL of each of storage liquid is added into 48 μL ddH2O, to obtain the 40 μM compounds solution containing 4% DMSO. After mixing, 3 μL of each of the solution is added into 27 μL 4% DMSO (in ddH2O) to obtain the 4 μM compounds solution. 5 μL of each dilute solution is added into 384-well plates, then the final concentration of the compounds in the 20 μL final kinase reaction system is 10 μM and 1 μM respectively contained 1% DMSO. The dilution methods of compounds are similar to the preliminary screening in IC50 test.
2×PIP2 working fluid is prepared with 1.33× reaction buffer to the final concentration of 20 μM.
The screening concentration of PI 3k α kinase: 8 ng/well,
Kinase is diluted with 2×PIP2 operating fluid, the concentration of kinase operating fluid is 2 times of screening concentration.
10 mM ATP is diluted with 1.33× reaction buffer to 400 μM. The concentration of ATP is 100 μM in 20 μL kinase reaction system.
Stop A and Stop B are mixed according to the proportion of 3:1, and are placed for 2 hours at room temperature to obtain the stop solution available.
DM C, DM A and DM B are mixed according to the proportion of 18:1:1, and are placed for 2 hours at room temperature to obtain the detection solution available.

PI3Kδ = biological target: T4, PI3Kδ (Homo sapiens, UniProt O00329); assay: Inhibitory activity to PI3K δ, PI 3-Kinase (human) HTRF Assay kit; assay type: biochemical; conditions: for Inhibition rate % to PI3K delta: dihydrate di-methanesulfonate
T4 construct: purchased Millipore 14-604
Method in brief: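 Inhibition of human PI3Kδ was assessed with the Millipore PI 3-Kinase (human) HTRF Assay kit. PI3Kδ was screened at 2 ng/well, diluted in 2×PIP2 operating fluid. Reactions were 20 μL and contained 100 μM ATP. Stop solution was Stop A and Stop B mixed 3:1. Detection solution was DM C, DM A and DM B mixed 18:1:1. Compounds were prepared from DMSO stocks, and percent inhibition was reported.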

[4] = system: PC-3 cell Akt (Ser473) phosphorylation; assay: Inhibition of phosphorylation level of PC-3 cell Akt (Ser473), Cisbio HTRF phospho Akt (Ser473) cell-based assay; set-up: species or system human; conditions: hEGF 100 ng/ml stimulation, 1st and 2nd test where printed
Protocol: The inhibitory activity of the compounds of present invention to the phosphorylation level of PC-3 cell Akt (Ser473) is studied by using Cisbio HTRF phospho Akt (Ser473) cell-based assay test kit.
Cell strain: PC-3 prostate cancer cells line (cell bank of Chinese Academy of Sciences) is cultured by using culture medium (F12K+10% FBS).
hEGF is prepared as stock solution of 100 ug/ml with 10 mM acetic acid, and the stock solution is diluted to 200 ng/ml with serum-free medium, added 50 ul to each well to be stimulated.
b) Preparation of Complete Lysate • 4×Lysis Buffer is diluted 4 times with ddH2O to prepare 1×Lysis Buffer. • 100×Blocking Reagent is diluted 100 times with 1×Lysis Buffer.
c) Preparation of Detection Liquid • 20×Anti-Phospho-Akt is diluted 20 times with Detection Buffer. • 20×Anti-Akt is diluted 20 times with Detection Buffer.
The compounds are diluted with DMSO, and the working concentration of compounds is 100 times of detection concentration.
Cells in logarithmic growth phase are collected, counted, and resuspended with complete culture medium;
The cell concentration is adjusted to appropriate concentration, and cell suspension is inoculated into 96 well plates at 50 μl per well;
Cells are incubated for more than 4 h in the 5% CO2 incubator at temperature of 37° C., relative humidity of 100%;
Cell plate is removed from the incubator. The cell suspension is aspirated gently, and 50 ul serum-free F12K medium is quickly added, then the cell plate is placed into the incubator to culture overnight.
The compounds are diluted in a linear gradient with DMSO.
0.5 ul compounds is added into the test well, mixed on oscillators, and incubated at room temperature for 2 hours.
Proportioned hEGF solution is added to test well at 50 μl per well, and the final concentration is 100 ng/ml. serum-free medium is added into The negative control well at 50 μl per well.
The solution is mixed on oscillator and incubated at room temperature for 2 hours.
The liquid in 96 well plates is aspirated by multichannel pipette or the supernatant is discarded gently. The proportioned complete lysate is added quickly at 50 μl per well.
The solution is mixed on oscillator and lysed at room temperature for 30 min.
16 μl cell lysate is transferred from the 96 well plates to white low volume 384 well plates, and the proportioned two pairs of detection antibody are added. The solution is mixed on oscillator, and incubated at room temperature for 4 hours to detect the readings.

[5] = 1 μM (Table 7), read-out: Inhibition rate % to PI3Kδ
[6] = 10 μM (Table 7), read-out: Inhibition rate % to PI3Kδ
[7] = 0.4 μM (Table 8), read-out: Inhibition rate % to PI3K delta
[8] = 2 μM (Table 8), read-out: Inhibition rate % to PI3K delta
[9] = 10 μM (Table 8), read-out: Inhibition rate % to PI3K delta

T1 sequence (P48736 whole entry): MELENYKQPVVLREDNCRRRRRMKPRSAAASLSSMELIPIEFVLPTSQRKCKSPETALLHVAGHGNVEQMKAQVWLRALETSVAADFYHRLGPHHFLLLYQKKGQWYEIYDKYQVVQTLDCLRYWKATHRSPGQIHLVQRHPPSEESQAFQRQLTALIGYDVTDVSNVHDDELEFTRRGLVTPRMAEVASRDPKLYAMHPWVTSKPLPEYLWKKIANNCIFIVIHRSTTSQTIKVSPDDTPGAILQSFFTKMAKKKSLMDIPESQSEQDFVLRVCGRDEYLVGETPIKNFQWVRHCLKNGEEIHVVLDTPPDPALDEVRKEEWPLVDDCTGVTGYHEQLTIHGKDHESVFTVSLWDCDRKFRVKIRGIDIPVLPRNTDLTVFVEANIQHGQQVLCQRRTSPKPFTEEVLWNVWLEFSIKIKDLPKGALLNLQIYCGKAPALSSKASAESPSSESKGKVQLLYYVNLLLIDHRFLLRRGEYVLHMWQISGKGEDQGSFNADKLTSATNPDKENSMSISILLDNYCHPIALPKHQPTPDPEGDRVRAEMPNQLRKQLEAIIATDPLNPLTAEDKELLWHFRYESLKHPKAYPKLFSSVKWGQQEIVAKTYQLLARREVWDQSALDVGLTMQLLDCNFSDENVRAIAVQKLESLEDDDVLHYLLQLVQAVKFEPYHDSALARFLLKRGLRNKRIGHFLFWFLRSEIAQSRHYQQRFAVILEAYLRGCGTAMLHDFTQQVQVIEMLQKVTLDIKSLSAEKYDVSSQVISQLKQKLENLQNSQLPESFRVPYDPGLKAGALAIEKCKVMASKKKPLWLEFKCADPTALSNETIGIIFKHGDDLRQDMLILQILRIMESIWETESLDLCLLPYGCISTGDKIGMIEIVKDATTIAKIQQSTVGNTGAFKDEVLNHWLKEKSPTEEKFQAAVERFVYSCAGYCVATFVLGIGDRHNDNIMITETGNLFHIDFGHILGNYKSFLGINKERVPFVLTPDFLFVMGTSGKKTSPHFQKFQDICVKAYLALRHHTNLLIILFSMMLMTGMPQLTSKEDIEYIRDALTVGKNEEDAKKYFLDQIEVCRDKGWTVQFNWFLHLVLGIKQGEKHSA
T2 sequence (P09619 33-1106): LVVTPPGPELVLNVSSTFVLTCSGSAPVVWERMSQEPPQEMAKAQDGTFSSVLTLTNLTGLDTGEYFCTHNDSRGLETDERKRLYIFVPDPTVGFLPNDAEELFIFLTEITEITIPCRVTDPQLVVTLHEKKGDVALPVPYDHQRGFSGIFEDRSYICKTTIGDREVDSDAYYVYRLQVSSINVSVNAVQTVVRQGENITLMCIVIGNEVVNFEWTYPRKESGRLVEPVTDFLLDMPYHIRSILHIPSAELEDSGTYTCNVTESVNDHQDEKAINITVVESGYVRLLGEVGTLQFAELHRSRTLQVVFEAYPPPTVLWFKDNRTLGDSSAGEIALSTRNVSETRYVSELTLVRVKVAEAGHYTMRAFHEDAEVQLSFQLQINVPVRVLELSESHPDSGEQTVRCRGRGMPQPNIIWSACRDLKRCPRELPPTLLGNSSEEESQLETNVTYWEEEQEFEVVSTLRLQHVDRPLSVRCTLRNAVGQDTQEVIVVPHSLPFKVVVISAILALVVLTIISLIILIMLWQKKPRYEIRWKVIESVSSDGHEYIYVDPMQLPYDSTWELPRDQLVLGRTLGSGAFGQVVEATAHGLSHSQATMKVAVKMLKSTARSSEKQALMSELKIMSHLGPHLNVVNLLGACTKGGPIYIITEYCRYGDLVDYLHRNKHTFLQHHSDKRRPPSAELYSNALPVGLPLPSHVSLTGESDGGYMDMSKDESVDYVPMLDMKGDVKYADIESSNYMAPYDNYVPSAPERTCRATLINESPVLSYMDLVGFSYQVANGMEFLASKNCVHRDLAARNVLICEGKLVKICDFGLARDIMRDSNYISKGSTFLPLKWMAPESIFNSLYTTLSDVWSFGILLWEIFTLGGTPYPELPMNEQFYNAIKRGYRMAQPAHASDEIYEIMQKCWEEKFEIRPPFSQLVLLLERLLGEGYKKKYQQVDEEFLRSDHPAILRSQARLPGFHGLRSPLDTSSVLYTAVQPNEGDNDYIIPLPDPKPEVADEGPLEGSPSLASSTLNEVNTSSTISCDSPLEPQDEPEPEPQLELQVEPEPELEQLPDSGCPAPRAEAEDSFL
T3 sequence (P42336 whole entry): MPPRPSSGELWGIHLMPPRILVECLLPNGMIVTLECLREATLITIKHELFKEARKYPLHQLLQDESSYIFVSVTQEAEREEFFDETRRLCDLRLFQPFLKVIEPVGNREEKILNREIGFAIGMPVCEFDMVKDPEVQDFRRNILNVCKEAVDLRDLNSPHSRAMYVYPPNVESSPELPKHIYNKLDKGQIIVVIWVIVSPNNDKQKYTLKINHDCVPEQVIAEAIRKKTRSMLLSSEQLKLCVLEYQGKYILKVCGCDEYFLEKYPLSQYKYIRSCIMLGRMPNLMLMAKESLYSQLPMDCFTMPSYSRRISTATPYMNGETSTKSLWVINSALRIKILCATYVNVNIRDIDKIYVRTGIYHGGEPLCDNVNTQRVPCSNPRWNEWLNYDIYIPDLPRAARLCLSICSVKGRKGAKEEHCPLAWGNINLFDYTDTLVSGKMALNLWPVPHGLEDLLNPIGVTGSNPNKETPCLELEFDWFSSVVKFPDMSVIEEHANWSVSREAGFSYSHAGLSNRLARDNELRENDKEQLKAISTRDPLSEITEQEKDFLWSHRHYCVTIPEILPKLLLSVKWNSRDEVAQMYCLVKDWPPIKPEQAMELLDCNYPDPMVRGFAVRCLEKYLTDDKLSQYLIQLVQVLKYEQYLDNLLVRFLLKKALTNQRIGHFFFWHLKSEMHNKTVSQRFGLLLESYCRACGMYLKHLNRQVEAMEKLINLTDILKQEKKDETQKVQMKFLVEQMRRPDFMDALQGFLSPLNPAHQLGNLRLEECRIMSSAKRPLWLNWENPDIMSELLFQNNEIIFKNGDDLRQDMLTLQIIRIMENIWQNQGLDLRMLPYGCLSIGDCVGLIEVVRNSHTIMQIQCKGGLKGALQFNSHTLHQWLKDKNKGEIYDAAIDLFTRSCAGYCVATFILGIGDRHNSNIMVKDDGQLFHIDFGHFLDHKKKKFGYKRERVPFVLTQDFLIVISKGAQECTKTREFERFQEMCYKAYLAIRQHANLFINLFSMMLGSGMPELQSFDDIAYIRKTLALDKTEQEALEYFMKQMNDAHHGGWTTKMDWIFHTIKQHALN
T3 sequence (P27986 whole entry partner): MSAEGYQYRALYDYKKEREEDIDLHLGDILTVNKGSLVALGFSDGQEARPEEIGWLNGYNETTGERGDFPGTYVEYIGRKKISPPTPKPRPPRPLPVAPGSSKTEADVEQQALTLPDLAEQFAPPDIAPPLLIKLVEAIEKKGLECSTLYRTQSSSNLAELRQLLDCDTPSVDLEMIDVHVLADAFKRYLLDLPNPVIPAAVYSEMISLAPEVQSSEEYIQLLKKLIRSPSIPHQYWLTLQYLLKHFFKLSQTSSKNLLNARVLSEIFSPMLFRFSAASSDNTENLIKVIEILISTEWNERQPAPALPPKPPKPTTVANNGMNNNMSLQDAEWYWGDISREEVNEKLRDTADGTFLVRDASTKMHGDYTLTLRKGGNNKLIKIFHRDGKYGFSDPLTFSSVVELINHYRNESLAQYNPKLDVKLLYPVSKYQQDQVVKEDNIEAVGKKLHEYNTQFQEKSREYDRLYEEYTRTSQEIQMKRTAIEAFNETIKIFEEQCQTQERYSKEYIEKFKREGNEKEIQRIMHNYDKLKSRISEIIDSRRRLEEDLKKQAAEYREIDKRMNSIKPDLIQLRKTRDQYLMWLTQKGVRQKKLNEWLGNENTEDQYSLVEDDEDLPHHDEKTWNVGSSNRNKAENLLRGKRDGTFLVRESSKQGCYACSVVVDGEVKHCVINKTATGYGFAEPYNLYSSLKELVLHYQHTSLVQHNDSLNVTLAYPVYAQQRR
T4 sequence (O00329 whole entry): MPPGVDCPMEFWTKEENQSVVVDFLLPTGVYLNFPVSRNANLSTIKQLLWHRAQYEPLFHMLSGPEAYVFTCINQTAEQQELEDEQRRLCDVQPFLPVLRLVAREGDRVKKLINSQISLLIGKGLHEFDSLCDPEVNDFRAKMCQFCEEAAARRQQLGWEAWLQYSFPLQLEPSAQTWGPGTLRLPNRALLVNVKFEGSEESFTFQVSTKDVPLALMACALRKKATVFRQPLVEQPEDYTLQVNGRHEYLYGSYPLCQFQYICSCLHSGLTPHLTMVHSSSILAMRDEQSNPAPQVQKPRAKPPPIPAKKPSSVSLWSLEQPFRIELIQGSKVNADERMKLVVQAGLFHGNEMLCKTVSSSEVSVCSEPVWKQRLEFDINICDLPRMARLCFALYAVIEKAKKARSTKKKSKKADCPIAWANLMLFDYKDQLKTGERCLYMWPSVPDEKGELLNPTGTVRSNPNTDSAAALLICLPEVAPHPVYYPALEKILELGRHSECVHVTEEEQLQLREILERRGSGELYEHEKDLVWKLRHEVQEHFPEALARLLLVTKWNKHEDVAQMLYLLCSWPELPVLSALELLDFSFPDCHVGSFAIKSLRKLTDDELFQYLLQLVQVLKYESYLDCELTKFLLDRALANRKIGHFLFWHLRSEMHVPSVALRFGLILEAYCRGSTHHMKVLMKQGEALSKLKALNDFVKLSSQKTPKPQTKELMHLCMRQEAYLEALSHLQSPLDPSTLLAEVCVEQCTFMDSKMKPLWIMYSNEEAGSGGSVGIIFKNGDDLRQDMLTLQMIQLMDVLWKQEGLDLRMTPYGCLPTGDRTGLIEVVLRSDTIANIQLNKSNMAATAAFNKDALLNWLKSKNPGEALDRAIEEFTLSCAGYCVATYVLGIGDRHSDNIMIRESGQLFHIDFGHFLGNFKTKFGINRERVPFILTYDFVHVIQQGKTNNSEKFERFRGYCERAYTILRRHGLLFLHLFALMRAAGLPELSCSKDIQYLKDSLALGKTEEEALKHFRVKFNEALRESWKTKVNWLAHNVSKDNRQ
T4 sequence (P27986 whole entry partner): as the sequence (P27986 whole entry partner) above

IC50 ([1]; Homo sapiens, PC-3, 72 h)	IC50 [2]	IC50 ([3]; Homo sapiens, BT-474, 72 h)	inhibition at 1 µM (PI3K α)	inhibition at 10 µM (PI3K α)	inhibition at 1 µM (PI3Kδ; [5])	inhibition at 10 µM (PI3Kδ; [6])	IC50 ([4]; Homo sapiens, PC-3, PC-3 cells)	Structure (SMILES)	further results
0.616 µM	8.6 µM	0.441 µM	49.5%	126%	75.7%	95.6%	67 nM	CC(C)Nc1nc(Nc2ccc3nccc(-c4ccccc4)c3c2)nc2[nH]cnc12 [MED1007-101, N6-isopropyl-N2-(4-phenylquinoline-6-yl)-9H-purine-2,6-diamine]	–
1.7 µM	18.1 µM	1.36 µM	60.3%	106%	–	–	–	CC(C)Oc1nc(Nc2ccc3ncccc3c2)nc2[nH]cnc12 [MED1007-104, N-(6-isopropoxy-9H-purine-2-yl) quinoline-6-amine]	Inhibition rate % to PI3Kδ (PI3Kδ; 1 μM (Table 7), 1 µM): 57.14%; Inhibition rate % to PI3Kδ (PI3Kδ; 10 μM (Table 7), 10 µM): 85.86%
1.02 µM	41 µM	0.42 µM	60.4%	111%	74.2%	105%	–	CCC(CC)Oc1nc(Nc2ccc3nccc(-c4ccccc4)c3c2)nc2[nH]cnc12 [MED1007-105, N-(6-(pentyl-3-yloxyl)-9H-purine-2-yl)-4-phenyl quinoline-6-amine]	–
1.57 µM	7.36 µM	1.95 µM	–	–	–	–	260 nM	c1cc(C2CC2)c2cc(Nc3nc(NC4CC4)c4nc[nH]c4n3)ccc2n1 [MED1007-115, N6-cyclopropyl-N2-(4-cyclopropylquinoline-6-yl)-9H-purine-2,6-diamine dihydrate di-methanesulfonate]	inhibition at 0.4 µM (PI3Kδ; [7]): 36.8%; inhibition at 2 µM (PI3Kδ; [8]): 60.2%; inhibition at 10 µM (PI3Kδ; [9]): 94.6%
0.697 µM	18.3 µM	0.612 µM	–	–	–	–	116 nM	c1ccc(-c2ccnc3ccc(Nc4nc(N5CCOCC5)c5nc[nH]c5n4)cc23)cc1 [MED1007-109S, N-(6-morpholine-9H-purine-2-yl)-4-phenyl quinoline-6-amine dihydrate di-methanesulfonate]	Inhibition rate % to PI3K delta (PI3Kδ; 0.4 μM (Table 8), 0.4 µM): 30.22%; Inhibition rate % to PI3K delta (PI3Kδ; 2 μM (Table 8), 2 µM): 57.34%; Inhibition rate % to PI3K delta (PI3Kδ; 10 μM (Table 8), 10 µM): 94.36%

Structure (SMILES)	IC50 ([1]; Homo sapiens, PC-3, 72 h)	IC50 [2]	IC50 ([3]; Homo sapiens, BT-474, 72 h)	inhibition at 1 µM (PI3K α)	inhibition at 10 µM (PI3K α)	inhibition at 1 µM (PI3Kδ; [5])	inhibition at 10 µM (PI3Kδ; [6])	IC50 ([4]; Homo sapiens, PC-3, PC-3 cells)	further results
c1cnc2ccc(Nc3nc(NC4CC4)c4nc[nH]c4n3)cc2c1 [XC-302, reference compound]	15 µM	17.8 µM	5.87 µM	–	–	–	–	–	inhibition at 1 µM (PI3 K γ): 18.3%; inhibition at 10 µM (PI3 K γ): 49.3%; inhibition at 1 µM (PDGFR β enzyme; 1 μM): 51.1%; inhibition at 10 µM (PDGFR β enzyme; 10 μM): 96.5%
CC(C)Oc1nc(Nc2ccc3nccc(-c4ccccc4)c3c2)nc2[nH]cnc12 [MED1007-108, N-(6-isopropoxy-9H-purine-2-yl)-4-(phenyl-1-yl) quinoline-6-amine-methanesulfonate]	0.0716 µM	–	0.063 µM	–	–	–	–	3.83 nM	IC50 ([1]; 72 hours): 0.113 µM; IC50 ([3]; 72 hours): 0.035 µM; inhibition at 0.4 µM (PI3Kδ; [7]): 40.5%; inhibition at 2 µM (PI3Kδ; [8]): 78.6%; inhibition at 10 µM (PI3Kδ; [9]): 89%; IC50 ([4]; PC-3 cells): 6.51 nM
CC(C)Oc1nc(Nc2ccc3nccc(-c4ccccc4)c3c2)nc2[nH]cnc12 [MED1007-51, N-(6-isopropoxy-9H-purine-2-yl)-4-(phenyl-1-yl) quinoline-6-amine]	–	–	–	–	–	39.6%	75.5%	–	inhibition at 1 µM (PI3 K γ): 1.16%; inhibition at 10 µM (PI3 K γ): 56.2%; inhibition at 1 µM (PDGFR β enzyme): 11.9%; inhibition at 10 µM (PDGFR β enzyme): 33.6%; IC50 ([3]; 72 hours): 0.0814 µM and 0.114 µM; IC50 ([4]; PC-3 cells): 1.14 nM and 0.683 nM
